Where two headings read alike, the source gives them in different places.
Tests used:
5HT2B receptors = target: T1, 5HT2B receptors (Homo sapiens, UniProt P41595); assay: Human 5-HT2B functional high throughput screening assay in CHO-K1 cells (calcium flux); type: cell-based; settings: for EC50: CHO-K1 cells, calcium flux
T1 construct: expressed in transfected cells; host or cells: CHO-K1 cells
Outline: (§1)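 CHO-K1 cells overexpressing human 5-HT2C or 5-HT2B were serum-starved overnight and loaded with Ca4 dye plus 2.5 mM probenecid for 60 min at RT. Calcium flux was read on FLIPR (ex 480/em 530 nm, 25° C) over 3 min after addition of compound, tested from 10 μM in 1:10 steps over 6 points with 0.2% DMSO. EC50 and Emax relative to serotonin came from a 4-parameter logistic fit.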

5HT2C receptors = target: T2, 5HT2C receptors (Homo sapiens, UniProt P28335); assay: Human 5-HT2C functional high throughput screening assay in CHO-K1 cells (calcium flux); type: cell-based; design: expressed in transfected cells; host or cells: CHO-K1 cells; settings: for Emax: CHO-K1, 5-HT2C, maximum functional response as percentage relative to the effect of serotonin; for EC50: CHO-K1 cells, calcium flux
T2 sequence (P28335 33-458): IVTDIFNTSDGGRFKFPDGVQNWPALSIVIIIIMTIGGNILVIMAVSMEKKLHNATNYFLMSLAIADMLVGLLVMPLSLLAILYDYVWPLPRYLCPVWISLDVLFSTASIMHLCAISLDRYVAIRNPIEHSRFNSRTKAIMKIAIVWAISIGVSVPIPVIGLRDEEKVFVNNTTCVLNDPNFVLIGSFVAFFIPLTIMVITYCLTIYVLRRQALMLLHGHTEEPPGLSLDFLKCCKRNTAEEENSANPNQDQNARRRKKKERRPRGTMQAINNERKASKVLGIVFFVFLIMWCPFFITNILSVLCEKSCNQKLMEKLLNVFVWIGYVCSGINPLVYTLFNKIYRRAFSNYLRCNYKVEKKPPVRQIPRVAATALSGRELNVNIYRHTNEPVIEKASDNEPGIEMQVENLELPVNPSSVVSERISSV
Outline: as §1

[1] = 5-HT2B agonist activity, read-out: EC50
[2] = 5-HT2B, maximum functional response as percentage relative to the effect of serotonin
[3] = 5-HT2C agonist activity, read-out: EC50

T1 sequence (P41595 whole entry): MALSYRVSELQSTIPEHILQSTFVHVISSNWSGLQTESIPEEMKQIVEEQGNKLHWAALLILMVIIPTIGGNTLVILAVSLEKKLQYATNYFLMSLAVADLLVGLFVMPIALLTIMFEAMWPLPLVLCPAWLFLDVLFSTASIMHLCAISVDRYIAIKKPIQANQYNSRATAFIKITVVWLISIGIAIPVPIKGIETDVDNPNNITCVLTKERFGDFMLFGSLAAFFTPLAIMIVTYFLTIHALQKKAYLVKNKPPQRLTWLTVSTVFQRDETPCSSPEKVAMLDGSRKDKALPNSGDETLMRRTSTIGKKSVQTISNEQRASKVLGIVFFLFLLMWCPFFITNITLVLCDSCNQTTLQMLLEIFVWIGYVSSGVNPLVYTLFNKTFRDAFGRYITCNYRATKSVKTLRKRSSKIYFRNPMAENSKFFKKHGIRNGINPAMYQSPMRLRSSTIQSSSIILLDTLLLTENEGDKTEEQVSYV

| EC50 (5HT2B receptors; [1]) [nM] | Emax (5HT2B receptors; [2]) | Emax (5HT2C receptors; read-out: Emax) [%] | EC50 (5HT2C receptors; [3]) [nM] | SMILES | Emax (5HT2B receptors; CHO-K1) [%] | EC50 (5HT2B receptors; EC50, 5-HT2B agonist activity) [nM] | Emax (5HT2C receptors) [%] | EC50 (5HT2C receptors; EC50, 5-HT2C agonist activity) [nM] |
| --- | --- | --- | --- | --- | --- | --- | --- | --- |
| > 10000 | inactive | 110 | – | COc1ccc(-c2ccc3c(c2)C(=O)NC[C@@H]2CN(C)C[C@@H]32)cc1 [Example 159, (3aR,10bR)-8-(4-Methoxyphenyl)-2-methyl-1,2,3,3a,4,5-hexahydrobenzo[e]pyrrolo[3,4-c]azepin-6(10bH)-one] | – | – | – | – |
| > 10000 | inactive | > 120 | 0.8 | COc1cccc(-c2ccc3c(c2)C(=O)NC[C@H]2CN(C)C[C@H]32)c1 [Example 160, (3aS,10bS)-8-(3-Methoxyphenyl)-2-methyl-1,2,3,3a,4,5-hexahydrobenzo[e]pyrrolo[3,4-c]azepin-6(10bH)-one] | – | – | – | – |
| > 10000 | inactive | 110 | – | COc1cccc(-c2ccc3c(c2)C(=O)NC[C@@H]2CN(C)C[C@@H]32)c1 [Example 161, (3aR,10bR)-8-(3-Methoxyphenyl)-2-methyl-1,2,3,3a,4,5-hexahydrobenzo[e]pyrrolo[3,4-c]azepin-6(10bH)-one] | – | – | – | – |
| – | – | – | – | CN1C[C@@H]2CNC(=O)c3cc(F)cc(F)c3[C@H]2C1 [Example 162, (3aS,10bS)-8,10-Difluoro-2-methyl-1,2,3,3a,4,5-hexahydrobenzo[e]pyrrolo[3,4-c]azepin-6(10bH)-one] | 40 | 100 | > 120 | 8 |
| – | – | – | – | CN1C[C@@H]2CN(C)C(=O)c3cc(F)ccc3[C@H]2C1 [Example 163, (3aR,10bS)-8-Fluoro-2,5-dimethyl-1,2,3,3a,4,5-hexahydrobenzo[e]pyrrolo[3,4-c]azepin-6(10bH)-one] | 20 | 800 | > 120 | 60 |
| > 10000 | inactive | > 120 | 10 | C[C@H](Cc1ccccc1)Oc1ccc2c(c1)C(=O)NC[C@H]1CNC[C@H]21 [Example 181, (3aR,10bS)-8-((R)-1-Phenylpropan-2-yloxy)-1,2,3,3a,4,5-hexahydrobenzo[e]pyrrolo[3,4-c]azepin-6(10bH)-one] | – | – | – | – |
| > 10000 | inactive | > 120 | 2 | CN1C[C@@H]2CNC(=O)c3cc(OCc4cccc(F)c4)ccc3[C@H]2C1 [Example 206, (3aS,10bS)-8-(3-Fluorobenzyloxy)-2-methyl-1,2,3,3a,4,5-hexahydrobenzo[e]pyrrolo[3,4-c]azepin-6(10bH)-one] | – | – | – | – |
| > 10000 | inactive | > 120 | 1 | CN1C[C@@H]2CNC(=O)c3cc(OCc4ccccc4F)ccc3[C@H]2C1 [Example 207, (3aS,10bS)-8-(2-Fluorobenzyloxy)-2-methyl-1,2,3,3a,4,5-hexahydrobenzo[e]pyrrolo[3,4-c]azepin-6(10bH)-one] | – | – | – | – |
| > 10000 | inactive | > 120 | 2 | CN1C[C@@H]2CNC(=O)c3cc(OCc4cc(F)cc(F)c4)ccc3[C@H]2C1 [Example 208, (3aS,10bS)-8-(3,5-Difluorobenzyloxy)-2-methyl-1,2,3,3a,4,5-hexahydrobenzo[e]pyrrolo[3,4-c]azepin-6(10bH)-one] | – | – | – | – |
| > 10000 | inactive | > 120 | 1 | CN1C[C@@H]2CNC(=O)c3cc(OCc4c(F)cccc4F)ccc3[C@H]2C1 [Example 209, (3aS,10bS)-8-(2,6-Difluorobenzyloxy)-2-methyl-1,2,3,3a,4,5-hexahydrobenzo[e]pyrrolo[3,4-c]azepin-6(10bH)-one] | – | – | – | – |
| > 10000 | inactive | > 120 | 2 | CN1C[C@@H]2CNC(=O)c3cc(OCc4ccc(F)c(F)c4)ccc3[C@H]2C1 [Example 210, (3aS,10bS)-8-(3,4-Difluorobenzyloxy)-2-methyl-1,2,3,3a,4,5-hexahydrobenzo[e]pyrrolo[3,4-c]azepin-6(10bH)-one] | – | – | – | – |
| > 10000 | inactive | > 120 | 2 | CN1C[C@@H]2CNC(=O)c3cc(OCc4ccc(F)cc4)ccc3[C@H]2C1 [Example 211, (3aS,10bS)-8-(4-Fluorobenzyloxy)-2-methyl-1,2,3,3a,4,5-hexahydrobenzo[e]pyrrolo[3,4-c]azepin-6(10bH)-one] | – | – | – | – |
| > 10000 | inactive | > 120 | 0.9 | CN1C[C@@H]2CNC(=O)c3cc(OCc4cccc(F)c4F)ccc3[C@H]2C1 [Example 212, (3aS,10bS)-8-(2,3-Difluorobenzyloxy)-2-methyl-1,2,3,3a,4,5-hexahydrobenzo[e]pyrrolo[3,4-c]azepin-6(10bH)-one] | – | – | – | – |
| > 10000 | inactive | > 120 | 1 | CN1C[C@@H]2CNC(=O)c3cc(OCc4c(F)ccc(F)c4F)ccc3[C@H]2C1 [Example 213, (3aS,10bS)-2-Methyl-8-(2,3,6-trifluorobenzyloxy)-1,2,3,3a,4,5-hexahydrobenzo[e]pyrrolo[3,4-c]azepin-6(10bH)-one] | – | – | – | – |
| > 10000 | inactive | > 120 | < 0.1 | O=C1NC[C@H]2CNC[C@@H]2c2ccc(-c3ccc(F)cc3)cc21 [Example 220, (3aR,10bS)-8-(4-Fluorophenyl)-1,2,3,3a,4,5-hexahydrobenzo[e]pyrrolo[3,4-c]azepin-6(10bH)-one] | – | – | – | – |
| > 10000 | inactive | > 120 | – | O=C1NC[C@@H]2CNC[C@H]2c2ccc(-c3ccc(F)cc3)cc21 [Example 221, (3aS,10bR)-8-(4-Fluorophenyl)-1,2,3,3a,4,5-hexahydrobenzo[e]pyrrolo[3,4-c]azepin-6(10bH)-one] | – | – | – | – |

| SMILES | EC50 (5HT2B receptors; [1]) [nM] | Emax (5HT2B receptors; [2]) | Emax (5HT2C receptors; read-out: Emax) [%] | EC50 (5HT2C receptors; [3]) [nM] | Emax (5HT2B receptors; CHO-K1) [%] | EC50 (5HT2B receptors; EC50, 5-HT2B agonist activity) [nM] | Emax (5HT2C receptors) [%] | EC50 (5HT2C receptors; EC50, 5-HT2C agonist activity) [nM] |
| --- | --- | --- | --- | --- | --- | --- | --- | --- |
| O=C1NC[C@H]2CNC[C@@H]2c2ccc(OCc3ccccc3F)cc21 [Example 179, (3aR,10bS)-8-(2-Fluorobenzyloxy)-1,2,3,3a,4,5-hexahydrobenzo[e]pyrrolo[3,4-e]azepin-6(10bH)-one] | – | inactive | – | – | – | > 10000 | > 120 | 0.3 |
| O=C1NC[C@@H]2CNC[C@H]2c2ccc(OCc3ccccc3F)cc21 [Example 180, (3aS,10bR)-8-(2-Fluorobenzyloxy)-1,2,3,3a,4,5-hexahydrobenzo[e]pyrrolo[3,4-c]azepin-6(10bH)-one] | – | inactive | – | – | – | > 10000 | > 120 | – |
| CN1C[C@@H]2CNC(=O)c3cc(Cl)ccc3[C@H]2C1 [Example 199, (3aS,10bS)-8-Chloro-2-methyl-1,2,3,3a,4,5-hexahydrobenzo[e]pyrrolo[3,4-c]azepin-6(10bH)-one] | – | inactive | – | – | – | > 10000 | > 120 | 10 |
| CN1C[C@@H]2CNC(=O)c3cc(O)ccc3[C@H]2C1 [Example 200, (3aS,10bS)-8-Hydroxy-2-methyl-1,2,3,3a,4,5-hexahydrobenzo[e]pyrrolo[3,4-c]azepin-6(10bH)-one] | > 10000 | inactive | – | 500 | – | – | 55 | – |
| CN1C[C@@H]2CNC[C@H]2c2ccc(F)cc2C1=O [Example 226, (3aS,10bR)-8-Fluoro-5-methyl-1,2,3,3a,4,5-hexahydrobenzo[c]pyrrolo[3,4-e]azepin-6(10bH)-one] | – | inactive | – | – | – | > 10000 | > 120 | – |
